Measured values published in patent US6653258B1 (priority 1987, dated 2003).

Tests used:
various species of plant = assay: Plant growth regulating whole plant screen (Table VIII); assay type: in vivo; settings: 4000 ppm (4 kg/ha) spray, assessed after 2-6 weeks
Procedure: This Example illustrates the plant growth regulating properties of compounds 1, 23 and 68 of Table I when tested on a whole plant screen against various species of plant. The plant species are identified in Table VII with the leaf stage at which they are sprayed.
A formulation of each chemical was applied at 4000 ppm (4 kg/ha in a 1000 l/ha field volume) using a tracksprayer and a SS8004E (Teejet) nozzle.
After spraying the plants were grown in a glasshouse with 25° C. day/22° C. night temperature. Supplementary lighting was supplied when necessary to provide an average photoperiod of 16 hours (14 hours minimum).
After 2-6 weeks in the glasshouse, depending on species and time of year, the plants were visually assessed for morphological characteristics against a control of plant sprayed with a blank formulation.

Erysiphe graminis = assay: Foliar fungal disease test on Erysiphe graminis, plants inoculated 24 hours before treatment (Table V); assay type: in vivo; set-up: key: 4: no disease; 3: trace −5% of disease on untreated plants; 6-25% of disease on untreated plants; 1: 26-59% of disease on untreated plants; 60-100% of disease on untreated plants; settings: plants inoculated 24 hours before treatment
[1] = system: foliar fungal diseases of plants; assay type: in vivo; set-up: key to disease control grading, […] (VINE): 4: no disease; 3: trace −5% of disease on untreated plants; key to disease control grading, PUCCINIA RECONDITA (WHEAT) / disease control grading, VENTURIA INAEQUALIS (APPLE) / disease control grading, CERCOSPORA ARACHIDICOLA (PEANUT) / disease control grading, PH[…] (TOMATO) / disease control grading, P[…] (RICE): 4: no disease; 3: trace −5% of disease on untreated plants; 6-25% of disease on untreated plants; 1: 26-59% of disease on untreated plants; 60-100% of disease on untreated plants; settings: applied to soil (roots) and foliage one or two days before inoculation; for disease control grading, CERCOSPORA ARACHIDICOLA (PEANUT): Cercospora arachidicola on peanut; for disease control grading, P[…] (RICE): P[…] on rice; for disease control grading, PH[…] (TOMATO): Ph[…] on tomato; for disease control grading, PUCCINIA RECONDITA (WHEAT): Puccinia recondita on wheat; for disease control grading, VENTURIA INAEQUALIS (APPLE): Venturia inaequalis on apple; for disease control grading, […] (VINE): […] on vine
[2] = system: Tomato plants, cv. Outdoor Girl; assay: Phytotoxicity on tomato plants, spray to maximum retention (Table VII); settings: for phytotoxicity, linear 0-5 scale, Tomato: assessed one week after treatment, four replicates
[3] = system: Peanut plants, cv. Tomnut; assay: Phytotoxicity on peanut plants, root drench (Table VI); assay type: in vivo; settings: for phytotoxicity, linear 0-5 scale, Peanut: 100 ppm root drench, assessed one week after treatment, four replicates
Procedure: Peanut plants, cv. Tomnut, were propagated in John Innes No. 1 compost. […] Uniform, 8-10 day-old plants were selected for the experiments.
Phytotoxicity was assessed on a linear 0- 5 scale where grade 1 ═slight damage and grade 5 ═dead plant.

[4] = 30 ppm spray to maximum retention
[5] = 100 ppm spray to maximum retention
[6] = 300 ppm spray to maximum retention

## CO/C=C(/C(=O)OC)c1ccccc1COc1ccc(Cl)cc1 [23 (Table I)]
Various species of plant; Tomato (TO, Ailsa Craig)
  A = Apical damage: 3 (3 = 61-100%)
  P = Phytotoxicity: 3 (3 = 31-50%)
  R = Retardation: 3 (3 = 61-100%)
Erysiphe graminis
  disease control grading, ERYSIPHE GRAMINIS (BARLEY): 4
[1]
  disease control grading, CERCOSPORA ARACHIDICOLA (PEANUT): 4
  disease control grading, P[…] (RICE): 4
  disease control grading, PH[…] (TOMATO): 4
  disease control grading, PUCCINIA RECONDITA (WHEAT): 4
  disease control grading, VENTURIA INAEQUALIS (APPLE): 4
  disease control grading, […] (VINE): 4

## CO/C=C(/C(=O)OC)c1ccccc1COc1cccc(Cl)c1 [Compound No. 1 of Table I, (E)-methyl 2-[2-(3-chlorophenoxymethyl)phenyl]-3-methoxypropenoate]
[2]; sprayed to maximum retention, assessed one week after (final) treatment (conclusion from Table VII)
  phytotoxicity relative to the unsubstituted comparative compound: less phytotoxic
[3]; root drench, assessed one week after treatment (conclusion from Table VI)
  phytotoxicity relative to the unsubstituted comparative compound: less phytotoxic

## CO/C=C(/C(=O)OC)c1ccccc1COc1ccc(Cl)cc1 [Compound 23, Table I]
[2]; [4]
  phytotoxicity, linear 0-5 scale, Tomato: 0.3
[2]; [5]
  phytotoxicity, linear 0-5 scale, Tomato: 1.5
[2]; [6]
  phytotoxicity, linear 0-5 scale, Tomato: 2.3
[3]
  phytotoxicity, linear 0-5 scale, Peanut: 0.13

## CO/C=C(/C(=O)OC)c1ccccc1COc1cccc(Cl)c1 [Compound 1, Table I]
[2]; [4]
  phytotoxicity, linear 0-5 scale, Tomato: 0.75
[2]; [5]
  phytotoxicity, linear 0-5 scale, Tomato: 0.63
[2]; [6]
  phytotoxicity, linear 0-5 scale, Tomato: 1.5
[3]
  phytotoxicity, linear 0-5 scale, Peanut: 0

## CO/C=C(/C(=O)OC)c1ccccc1COc1cccc(Cl)c1 [1 (Table I)]
Various species of plant; Maize (MZ, Earliking)
  G = Greening effect: 1 (1 = 10-30%)
  I = Interligular or internodal length reduction: 1 (1 = 10-30%)
  R = Retardation: 1 (1 = 10-30%)
Various species of plant; Tomato (TO, Ailsa Craig)
  A = Apical damage: 3 (3 = 61-100%)
  P = Phytotoxicity: 2 (2 = 11-30%)
  R = Retardation: 3 (3 = 61-100%)
  T = Tillering or side shooting: 1 (1 = 10-30%)
Erysiphe graminis
  disease control grading, ERYSIPHE GRAMINIS (BARLEY): 4
[1]
  disease control grading, CERCOSPORA ARACHIDICOLA (PEANUT): 4
  disease control grading, P[…] (RICE): 4
  disease control grading, PH[…] (TOMATO): 4
  disease control grading, PUCCINIA RECONDITA (WHEAT): 4
  disease control grading, VENTURIA INAEQUALIS (APPLE): 4
  disease control grading, […] (VINE): 4

## CO/C=C(/C(=O)OC)c1ccccc1COc1ccccc1 [comparative compound, reference compound]
[2]; [4]
  phytotoxicity, linear 0-5 scale, Tomato: 2.8
[2]; [5]
  phytotoxicity, linear 0-5 scale, Tomato: 3.4
[2]; [6]
  phytotoxicity, linear 0-5 scale, Tomato: 3.0
[3]
  phytotoxicity, linear 0-5 scale, Peanut: 1.5

## CCN(CC)c1cccc(OCc2ccccc2/C(=C\OC)C(=O)OC)c1 [169 (Table I)]
Erysiphe graminis
  disease control grading, ERYSIPHE GRAMINIS (BARLEY): 1 (26-59% of disease on untreated plants)
[1]
  disease control grading, CERCOSPORA ARACHIDICOLA (PEANUT): 4
  disease control grading, P[…] (RICE): 0 (60-100% of disease on untreated plants)
  disease control grading, PH[…] (TOMATO): 4
  disease control grading, PUCCINIA RECONDITA (WHEAT): 3 (trace −5% of disease on untreated plants)
  disease control grading, VENTURIA INAEQUALIS (APPLE): 4
  disease control grading, […] (VINE): 4

## CO/C=C(/C(=O)OC)c1ccccc1COc1cccc(Oc2cccc(Br)c2)c1 [183 (Table I)]
Erysiphe graminis
  disease control grading, ERYSIPHE GRAMINIS (BARLEY): 4
[1]
  disease control grading, CERCOSPORA ARACHIDICOLA (PEANUT): 4
  disease control grading, P[…] (RICE): 3 (trace −5% of disease on untreated plants)
  disease control grading, PH[…] (TOMATO): 4
  disease control grading, PUCCINIA RECONDITA (WHEAT): 0 (60-100% of disease on untreated plants)
  disease control grading, VENTURIA INAEQUALIS (APPLE): 4
  disease control grading, […] (VINE): 4

## CO/C=C(/C(=O)OC)c1ccccc1COc1cccnc1 [68 (Table I)]
Various species of plant; Barley (BR, Atem)
  T = Tillering or side shooting: 1 (1 = 10-30%)
Erysiphe graminis
  disease control grading, ERYSIPHE GRAMINIS (BARLEY): 4
[1]
  disease control grading, CERCOSPORA ARACHIDICOLA (PEANUT): 3 (trace −5% of disease on untreated plants)
  disease control grading, P[…] (RICE): 3 (trace −5% of disease on untreated plants)
  disease control grading, PH[…] (TOMATO): 3 (trace −5% of disease on untreated plants)
  disease control grading, PUCCINIA RECONDITA (WHEAT): 3 (trace −5% of disease on untreated plants)
  disease control grading, VENTURIA INAEQUALIS (APPLE): 4
  disease control grading, […] (VINE): 4

## CO/C=C(/C(=O)OC)c1ccccc1COc1ccc2ccccc2n1 [149 (Table I)]
Erysiphe graminis
  disease control grading, ERYSIPHE GRAMINIS (BARLEY): 4
[1]
  disease control grading, P[…] (RICE): 4
  disease control grading, PH[…] (TOMATO): 4
  disease control grading, PUCCINIA RECONDITA (WHEAT): 4
  disease control grading, VENTURIA INAEQUALIS (APPLE): 4
  disease control grading, […] (VINE): 4

## CO/C=C(/C(=O)OC)c1ccccc1COc1ccc(Cl)cc1Cl [43 (Table I)]
Erysiphe graminis
  disease control grading, ERYSIPHE GRAMINIS (BARLEY): 4
[1]
  disease control grading, CERCOSPORA ARACHIDICOLA (PEANUT): 4
  disease control grading, P[…] (RICE): 4
  disease control grading, PH[…] (TOMATO): 4
  disease control grading, PUCCINIA RECONDITA (WHEAT): 4
  disease control grading, VENTURIA INAEQUALIS (APPLE): 4
  disease control grading, […] (VINE): 4

## CO/C=C(/C(=O)OC)c1ccccc1COc1cccc(C(C)(C)C)c1 [29 (Table I)]
Erysiphe graminis
  disease control grading, ERYSIPHE GRAMINIS (BARLEY): 2 (6-25% of disease on untreated plants)
[1]
  disease control grading, CERCOSPORA ARACHIDICOLA (PEANUT): 4
  disease control grading, P[…] (RICE): 4
  disease control grading, PH[…] (TOMATO): 4
  disease control grading, PUCCINIA RECONDITA (WHEAT): 4
  disease control grading, VENTURIA INAEQUALIS (APPLE): 4
  disease control grading, […] (VINE): 4

## CO/C=C(/C(=O)OC)c1ccccc1COc1cccc(Oc2ccccc2Cl)c1 [182 (Table I)]
Erysiphe graminis
  disease control grading, ERYSIPHE GRAMINIS (BARLEY): 4
[1]
  disease control grading, CERCOSPORA ARACHIDICOLA (PEANUT): 4
  disease control grading, P[…] (RICE): 4
  disease control grading, PH[…] (TOMATO): 4
  disease control grading, PUCCINIA RECONDITA (WHEAT): 4
  disease control grading, VENTURIA INAEQUALIS (APPLE): 3 (trace −5% of disease on untreated plants)
  disease control grading, […] (VINE): 4
